Where “and” joins values, the source holds several entries; their conditions need not be identical. Equal values may be shown once. Toxic doses and inconclusive results are not listed. The calls were made as follows: active = survival T/C of 150% or more; inactive = T/C below 125% in these data.
System: BDF1 mice, P388 leukemia ip, median survival T/C
Experiment: NCI In Vivo Anticancer Drug Screen. Data for tumor model P388 Leukemia (intraperitoneal) in B6D2F1 (BDF1) mice
Conditions: endpoint: median survival time, higher = longer survival
How it was run: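 Read-out is survival of treated animals expressed relative to the vehicle group, as a T/C ratio.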

[1] = dose: 100.0 mg/kg/injection, schedule: Q04DX003 (ip), vehicle: saline with Tween-80
[2] = dose: 200.0 mg/kg/injection, schedule: Q04DX003 (ip), vehicle: saline with Tween-80
[3] = dose: 400.0 mg/kg/injection, schedule: Q04DX003 (ip), vehicle: saline with Tween-80
[4] = dose: 50.0 mg/kg/injection, schedule: Q01DX009 (ip), vehicle: Klucel (hydroxypropylcellulose) (HPC)
[5] = dose: 200.0 mg/kg/injection, schedule: Q01DX009 (ip), vehicle: Klucel (hydroxypropylcellulose) (HPC)
[6] = dose: 12.5 mg/kg/injection, schedule: Q04DX003 (ip), vehicle: Klucel (hydroxypropylcellulose) (HPC)
[7] = dose: 25.0 mg/kg/injection, schedule: Q04DX003 (ip), vehicle: Klucel (hydroxypropylcellulose) (HPC)
[8] = dose: 50.0 mg/kg/injection, schedule: Q04DX003 (ip), vehicle: Klucel (hydroxypropylcellulose) (HPC)
[9] = dose: 100.0 mg/kg/injection, schedule: Q04DX003 (ip), vehicle: Klucel (hydroxypropylcellulose) (HPC)
[10] = dose: 200.0 mg/kg/injection, schedule: Q04DX003 (ip), vehicle: Klucel (hydroxypropylcellulose) (HPC)
[11] = dose: 6.25 mg/kg/injection, schedule: Q01DX009 (ip), vehicle: Klucel (hydroxypropylcellulose) (HPC)
[12] = dose: 6.25 mg/kg/injection, schedule: Q01DX009 (ip), vehicle: saline
[13] = dose: 12.5 mg/kg/injection, schedule: Q01DX009 (ip), vehicle: Klucel (hydroxypropylcellulose) (HPC)
[14] = dose: 12.5 mg/kg/injection, schedule: Q01DX009 (ip), vehicle: saline
[15] = dose: 50.0 mg/kg/injection, schedule: Q01DX009 (ip), vehicle: saline with Tween-80
[16] = dose: 100.0 mg/kg/injection, schedule: Q01DX009 (ip), vehicle: saline with Tween-80
[17] = dose: 200.0 mg/kg/injection, schedule: Q01DX009 (ip), vehicle: saline with Tween-80

Measured: T/C

COc1cccc2c1C(=O)c1c(O)c3c(c(O)c1C2=O)C[C@@](O)(C(C)=O)C[C@@H]3OC1CC(NC(=O)c2ccncc2)C(O)C(C)O1 (some centres undefined)
active: dose: 3.13 mg/kg/injection, schedule: Q01DX009 (ip), vehicle: water 150 % of control | dose: 6.25 mg/kg/injection, schedule: Q01DX009 (ip), vehicle: water 154 % of control | dose: 12.5 mg/kg/injection, schedule: Q01DX009 (ip), vehicle: water 159 % of control

O=C(O)CCC(=O)O
inactive: dose: 10.0 mg/kg/injection, schedule: Q01DX009 (ip), vehicle: saline 101 % of control and 122 % of control and 100 % of control | dose: 10.0 mg/kg/injection, schedule: Q01DX009 (ip), vehicle: water 111 % of control and 98 % of control | dose: 20.0 mg/kg/injection, schedule: Q01DX009 (ip), vehicle: saline 105 % of control and 115 % of control and 106 % of control | dose: 20.0 mg/kg/injection, schedule: Q01DX009 (ip), vehicle: water 117 % of control and 120 % of control | dose: 25.0 mg/kg/injection, schedule: Q01DX009 (ip), vehicle: other 105 % of control and 120 % of control | dose: 40.0 mg/kg/injection, schedule: Q01DX009 (ip), vehicle: saline 109 % of control and 108 % of control | dose: 40.0 mg/kg/injection, schedule: Q01DX009 (ip), vehicle: water 124 % of control and 100 % of control | dose: 50.0 mg/kg/injection, schedule: Q01DX009 (ip), vehicle: other 103 % of control and 102 % of control | dose: 80.0 mg/kg/injection, schedule: Q01DX009 (ip), vehicle: saline 108 % of control and 117 % of control | dose: 80.0 mg/kg/injection, schedule: Q01DX009 (ip), vehicle: water 115 % of control and 117 % of control | dose: 100.0 mg/kg/injection, schedule: Q01DX009 (ip), vehicle: other 102 % of control and 119 % of control | dose: 160.0 mg/kg/injection, schedule: Q01DX009 (ip), vehicle: saline 114 % of control and 110 % of control | dose: 160.0 mg/kg/injection, schedule: Q01DX009 (ip), vehicle: water 98 % of control and 124 % of control | dose: 200.0 mg/kg/injection, schedule: Q01DX009 (ip), vehicle: other 110 % of control | dose: 200.0 mg/kg/injection, schedule: Q01DX009 (ip), vehicle: saline 99 % of control and 115 % of control

CCOC(=O)CCc1nc(C(=O)OCC)c(C)c(=O)[nH]1
inactive: [1] 107 % of control | [2] 103 % of control | [3] 100 % of control

c1ccc(C/C(N=Nc2ccccc2)=N\Nc2ccccc2)cc1
inactive: [4] 110 % of control | dose: 100.0 mg/kg/injection, schedule: Q01DX009 (ip), vehicle: Klucel (hydroxypropylcellulose) (HPC) 110 % of control | [5] 100 % of control

Cc1ccc(S(=O)(=O)NN=C(c2ccccc2)c2ccccc2)cc1
inactive: [6] 98 % of control | [7] 103 % of control | [8] 103 % of control | [9] 97 % of control | [10] 97 % of control

C(=Nc1ccccc1)c1ccccc1C=Nc1ccccc1
inactive: [1] 104 % of control | [2] 109 % of control | [3] 100 % of control

N#CC(c1ccccc1)C1CCCCC1 (centres undefined)
inactive: dose: 75.0 mg/kg/injection, schedule: Q04DX003 (ip), vehicle: saline 111 % of control | dose: 150.0 mg/kg/injection, schedule: Q04DX003 (ip), vehicle: saline 107 % of control | dose: 300.0 mg/kg/injection, schedule: Q04DX003 (ip), vehicle: saline 115 % of control

CC(C)(C)NCC(CN(CC(CNC(C)(C)C)C(=O)c1ccccc1)C(C)(C)C)C(=O)c1ccccc1 (centres undefined)
inactive: [6] 104 % of control | [7] 104 % of control | [8] 112 % of control

COc1ccc2c(c1OC)C1C3CC=CC3C2C2=[N+]1CCc1cc3c(cc12)OCO3 (centres undefined)
inactive: dose: 3.12 mg/kg/injection, schedule: Q01DX009 (ip), vehicle: saline 95 % of control | [11] 114 % of control | [12] 100 % of control | [13] 90 % of control | [14] 108 % of control | dose: 18.0 mg/kg/injection, schedule: Q01DX009 (ip), vehicle: Klucel (hydroxypropylcellulose) (HPC) 86 % of control

CCCCOCN(COCCCC)c1ccc(C)cc1
inactive: [15] 100 % of control | [16] 112 % of control

C=C(C)C1CC=C(/C=N/O)CC1 (centres undefined)
inactive: [1] 100 % of control | [2] 100 % of control | [3] 95 % of control

CCCCCCCCCCCCCCCCCCSc1ccccc1
inactive: dose: 6.25 mg/kg/injection, schedule: Q04DX003 (ip), vehicle: saline sonified 110 % of control | dose: 12.5 mg/kg/injection, schedule: Q04DX003 (ip), vehicle: saline sonified 100 % of control | dose: 25.0 mg/kg/injection, schedule: Q04DX003 (ip), vehicle: saline sonified 110 % of control

CN1c2ccccc2C(=O)N2CCc3c([nH]c4ccccc34)C21 (centres undefined)
inactive: dose: 10.0 mg/kg/injection, schedule: Q01DX009 (ip), vehicle: saline with Tween-80 98 % of control | dose: 20.0 mg/kg/injection, schedule: Q01DX009 (ip), vehicle: saline with Tween-80 118 % of control

CCCCCCCCOC(=O)c1ccc(OP(=O)(N(C)C)N(C)C)cc1
inactive: dose: 12.5 mg/kg/injection, schedule: Q01DX009 (ip), vehicle: saline with Tween-80 99 % of control | dose: 25.0 mg/kg/injection, schedule: Q01DX009 (ip), vehicle: saline with Tween-80 101 % of control | [15] 106 % of control and 124 % of control | [17] 94 % of control

[O-]/[N+](=C\C=C\c1ccccc1)c1ccccc1
inactive: [9] 100 % of control | [10] 86 % of control | dose: 400.0 mg/kg/injection, schedule: Q04DX003 (ip), vehicle: Klucel (hydroxypropylcellulose) (HPC) 90 % of control

CC(=O)OCc1c(COC(C)=O)c(-c2ccccc2)n2c1CCC2
inactive: [11] 107 % of control

CC[C@@]1(O)C[C@H](OC2CC(N(C)C)C(O)C(C)O2)c2c(cc3c(c2O)C(=O)c2c(O)ccc(O)c2C3=O)[C@H]1C(=O)OC (some centres undefined)
active: dose: 20.0 mg/kg/injection, schedule: Q04DX003 (ip), vehicle: other 157 % of control

CCNC(C)(C)C(SSS)c1cccs1 (centres undefined)
inactive: [16] 112 % of control | [1] 100 % of control | [17] 120 % of control | [2] 122 % of control | [3] 118 % of control

CN(C)c1ccc2cc(S(=O)(=O)O)cc(O)c2c1
inactive: [16] 95 % of control | [17] 91 % of control | dose: 400.0 mg/kg/injection, schedule: Q01DX009 (ip), vehicle: saline with Tween-80 91 % of control

O=C(O)C(=O)O.O=C([O-])C(=O)O.O=C([O-])C(=O)O.O=C([O-])C(=O)[O-].[K+].[U]
inactive: dose: 1.02 mg/kg/injection, schedule: Q01DX009 (ip), vehicle: saline 90 % of control | dose: 1.56 mg/kg/injection, schedule: Q01DX009 (ip), vehicle: saline 91 % of control | dose: 2.34 mg/kg/injection, schedule: Q01DX009 (ip), vehicle: saline 95 % of control | [12] 95 % of control | dose: 6.25 mg/kg/injection, schedule: Q04DX003 (ip), vehicle: saline 90 % of control | [14] 100 % of control | dose: 50.0 mg/kg/injection, schedule: Q04DX003 (ip), vehicle: saline 86 % of control

CCCCCCC(=O)CCCCCCCCCCCCC(=O)OC
inactive: dose: 1.56 mg/kg/injection, schedule: Q01DX009 (ip), vehicle: saline with Tween-80 90 % of control | dose: 3.13 mg/kg/injection, schedule: Q01DX009 (ip), vehicle: saline with Tween-80 100 % of control | dose: 6.25 mg/kg/injection, schedule: Q01DX009 (ip), vehicle: saline with Tween-80 95 % of control

CCCCOc1ccc(OCCCCCCCCCC[N+](C)(C)C)cc1
inactive: dose: 3.13 mg/kg/injection, schedule: Q01DX009 (ip), vehicle: Klucel (hydroxypropylcellulose) (HPC) 112 % of control | [11] 106 % of control | [13] 105 % of control

CCOC(=O)C(C(=O)OCC)C(=O)c1cc(-c2ccc(Cl)c(Cl)c2)nc2c(Cl)cc(Cl)cc12
inactive: [4] 100 % of control | [5] 91 % of control

O=C(O)c1cc2c(Br)cccc2c2cc(C(F)(F)F)ccc12
inactive: dose: 50.0 mg/kg/injection, schedule: Q04DX003 (ip), vehicle: saline sonified 95 % of control | dose: 100.0 mg/kg/injection, schedule: Q04DX003 (ip), vehicle: saline sonified 100 % of control | dose: 200.0 mg/kg/injection, schedule: Q04DX003 (ip), vehicle: saline sonified 100 % of control

From PubChem BioAssay AID328 (DTP/NCI, 2004)
